We go through seven compounds from article PMC11571109, “Covalent Inhibitors of S100A4 Block the Formation of a Pro-Metastasis Non-Muscle Myosin 2A Complex” (Journal of Medicinal Chemistry, 2024).

For one series, the target named is T1, S100A11-AnII (Homo sapiens, UniProt P31949).
T1 construct: made in house; host or cells: E. coli Rosetta (DE3); peptide from LifeTein
T1 sequence (P31949 1-105): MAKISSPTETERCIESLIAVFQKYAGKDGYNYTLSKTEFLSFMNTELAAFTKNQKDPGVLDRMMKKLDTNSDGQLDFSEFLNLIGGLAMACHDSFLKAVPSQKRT
As to the kind of experiment: HTRF (TR-FRET) peptide displacement S100A11-AnII. In kind it is binding. Particulars: supplementary CSV. As to the method: Table S4: Compound IDs and SMILES … S30 […]
(§1) Peptide displacement assay development
(§2) addition of an inhibitor.
(§3) Assay was done in 384-well
(§4) After 2 hours of incubation at
(§5) concentration range to avoid the saturation of the signal.
(TR-FRET usually uses a lanthanide donor and a delayed reading to cut background.)

In another series the target is S100A4 (Homo sapiens, UniProt P26447). Briefly: Protein labeling detection by mass spectrometry, S100A4. As to conditions: 10 μM S100A4, 100 μM inhibitor, 1 h.
Chain of S100A4 (P26447 whole entry): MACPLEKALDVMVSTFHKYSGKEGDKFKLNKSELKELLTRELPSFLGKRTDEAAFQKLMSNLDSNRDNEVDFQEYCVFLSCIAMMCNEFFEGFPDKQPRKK
In series [1] the target is T2, S100A4-NMII (Homo sapiens, UniProt P26447). Briefly: HTRF (TR-FRET) peptide displacement S100A4-NMII (MPN peptide). Particulars: supplementary CSV. In kind it is binding. Set-up: made in house; host or cells: E. coli Rosetta (DE3); peptide from LifeTein. How it is done:
as §1, §2, §3, §4, §5

Series [2] is described as follows: GSH reactivity assay (LCMS). In kind it is physicochemical. As to conditions: 1 mM glutathione (GSH) in HEPES buffer, pH 7.5; read-out: GSH t1/2 (converted). How it is done:
GSH is the most abundant low molecular weight thiol compound in the cell. It protects cells from oxidative damage and the toxicity of xenobiotic electrophiles and maintains redox homeostasis.[43] We speculated that a robust and specific reaction of inhibitors would not be drastically affected by competitive cysteines in the reaction.
50 μM of each compound was incubated at room temperature with 1 mM GSH in 50 mM HEPES, 20 mM NaCl, pH 7.5, and 1.3% DMSO. At each time point, an aliquot was taken and analyzed by LCMS. The percentage of the compound remaining was determined by comparing the area of the peaks of the compound and the GSH adduct. The natural logarithm of the results was fitted to a linear regression, and t1/2 was calculated as t1/2 = ln(2)/–slope.

For a further series, the system named is HeLa. Briefly: Cell proliferation assay (CellTiter-Glo), HeLa. As to conditions: Homo sapiens, 48 h, supplementary CSV. In kind it is cell-based. As to the method: (§6) To further characterize the potency of the phenylproline derivatives on cancer cells, their effect on proliferation has been measured on HeLa and A549 cell lines, which are known to express S100A4.[44],[45] A cell proliferation assay was performed by cultivating cells for 48 h in complete media with various concentrations of inhibitors, up to 30 μM. At the end of the treatment, luminescence was measured after the addition of the CellTiter-Glo reagent (Figure 7A).
(§7) The day before, cells were seeded in a white, cell-culture treated 384-well plates in complete high-glucose DMEM to reach a confluency of 25% on the day of the experiment. The next day, the medium was replaced by complete, high-glucose, phenol-red-free medium, and cells were incubated for 48 h in the presence of an inhibitor or DMSO as a control. Aliquots of the supernatant were harvested, diluted 100 times in 200 mM Tris-HCl, pH 7.3, 10% glycerol, and 1% BSA buffer, and used for cyctotoxicity measurement by using the LDH-Glo cytotoxicity assay kit (Promega). In parallel, the CellTiter-Glo (Promega) reagent was added to the cells to measure cell proliferation. Both experiments were done according to the manufacturer’s recommendations, and the luminescence was quantified using the FSX plate reader (Pherastar).

The subject of a further series is A549. As to the kind of experiment: Cell proliferation assay (CellTiter-Glo), A549. In kind it is cell-based. Particulars: Homo sapiens, 48 h, supplementary CSV. How it is done:
as §6, §7
A general note: ATP-based viability assays read luminescence as a measure of living cells.

A short description of series [3]: Cytotoxicity assay (LDH-Glo), HeLa. In kind it is cell-based. Particulars: human, HeLa cells, supplementary CSV, read-out: HeLa Cell toxicity IC50. As to the method:
as §6, §7

The nature of series [4]: Cytotoxicity assay (LDH-Glo), A549. As to conditions: human, A549 cells, supplementary CSV, read-out: A549 Cell toxicity IC50. In kind it is cell-based. How it is done: as §6, §7
A further series in a line: Log D. In kind it is physicochemical. An excerpt:
(§8) Selected compounds were screened for aqueous solubility in PBS (pH 7.4), metabolic stability in mouse liver microsomes (MLM) as a measure of clearance, Log D, and permeability. ADME studies reported in this work were independently performed by WuXi AppTec (Shanghai, China). Raw data are provided upon request.

Series [5] can be described thus: Aqueous solubility in PBS (pH 7.4). In kind it is physicochemical. As to conditions: aqueous buffer; PBS pH 7.4; read-out: aq. solubility.
From the text: as §8

Series [6] can be described thus: Metabolic stability in mouse liver microsomes (MLM). In kind it is in vitro ADME.
From the text: as §8
On the technique in general: Microsomes from liver hold many membrane-bound enzymes, among them those of drug oxidation.

The subject of the next series is P-gp (MDR1). Briefly: Cell permeability MDR1-MDCK II. In kind it is in vitro ADME. As to conditions: dog.
From the text: as §8

Series [7] concerns the target T2, S100A4-NMII. Briefly: cell-based.
From the text: First, we performed IC50 measurements of protein–protein interaction in the presence of inhibitors using NanoBret technology. Briefly, S100A4-HaloTag and NMII-NanoLuc were expressed in 293HEK cells to allow signal detection from donor (NanoLuc) and acceptor (HaLoTag) proximity upon S100A4-NMII interaction.
Assay development was done according to the NanoBRet-NanoGlo detection system manufacturer’s recommendations (Promega) by testing each combination of N- and C-termini of HaloTag and NanoLuc fusion constructs. 293HEK cells were seeded on 6-well plates in complete DMEM media and transfected 6 h later with S100A4-NanoLuc (1.8 μg) and NMII-HaloTag (0.2 μg) constructs using the JetPrime transfection reagent (Polyplus Transfection, Strasbourg, France). After an overnight incubation, cells were resuspended in phenol-red-free, 4% serum media in the presence of the HaloTag NanoBret 618 ligand or DMSO for control. […] NanoBret NanoGlo substrates were added to cells prior to reading the plate with the Pherastar FSX plate reader. The raw Nanobret ratio was calculated by dividing the acceptor emission value (618 nm) by the donor emission value (460 nm) for each sample. The mean NanoBret data were calculated by subtracting the background ratio (no acceptor control) from the sample ratio.
Setting [8] is: read-out: S100A4 IC50 HTRF assay.

SMILES strings stand for the structures. Values joined by “and” are separate entries in the source; they are usually repeats but may differ in a detail not shown here. Identical values can stand only once. Like-named read-outs stand apart in the source and are kept apart here.

T2 sequence (P26447 whole entry): as above

Take `CC(C)c1c(-c2cnn(C3CCN(C(=O)/C=C/C(=O)c4ccccc4)CC3)c2)[nH]c2c(C#N)cnn2c1=O` [2b]: the IC50 – broadly, the concentration that gives 50% inhibition – stood at 1.35 µM at S100A11-AnII and 0.48 µM at S100A4-NMII [1] (setting [8]). The “S100A4 covalent modification pattern (in words)” value at S100A4 is “multiple adduct additions”.

In the case of `O=C1Nc2ccccc2C1NC(=O)[C@H]1C[C@H](c2ccccc2)CN1C(=O)CCl` (stereo partly shown) [5e], the IC50 was above 30 µM at S100A11-AnII and 3.25 µM on S100A4-NMII [1] (setting [8]).

On to `CC(C)c1c(-c2cnn(CCNC(=O)/C=C/C(=O)c3ccccc3)c2)[nH]c2c(C#N)cnn2c1=O` [2c], for which the IC50 was 5.6 µM at S100A11-AnII and 1.79 µM on S100A4-NMII [1] (setting [8]).

Take `CC(C)c1c(-c2ccc(OCCNC(=O)/C=C/C(=O)c3ccccc3)cc2)[nH]c2c(C#N)cnn2c1=O` [2a]: the concentration for half-maximal inhibition (IC50) on S100A11-AnII amounted to 3.67 µM; on S100A4-NMII [1] (setting [8]), 0.43 µM. At S100A4, the “S100A4 covalent modification pattern (in words)” value is recorded as “multiple adduct additions”.

For the compound `O=C(Nc1cccc(Cl)c1)[C@H]1C[C@H](c2ccccc2)CN1C(=O)CCl` [compound 5], the concentration for half-maximal inhibition (IC50) at S100A11-AnII turned out to be 33.8 µM; at S100A4-NMII [1] (setting [8]), 7.4 µM.

For the compound `O=C(CCl)Nc1ccc2c(c1)CN(CCc1cnn(-c3nccc4c(=O)[nH]cnc34)c1)CC2` [2d], the IC50 on S100A11-AnII was above 30 µM; on S100A4-NMII [1] (setting [8]), 9.24 µM.

As for `CC(C)C[C@@H](NC(=O)[C@H]1C[C@H](c2ccccc2)CN1C(=O)CCl)c1nc2ccccc2[nH]1` [5c], the IC50 at S100A11-AnII was 36.8 µM; with HeLa, 4.5 µM; in the series with A549, 11.9 µM; at S100A4-NMII [7], 11.1 µM; at S100A4-NMII [1] (S100A4 + 1mM GSH IC50 HTRF assay, 1 mM GSH) it was 1.57 µM; on S100A4-NMII [1] (setting [8]) it was 0.77 µM. For the same compound, the half-life at 50 μM in [2] was 6.8 h. Moreover, the half-inhibitory concentration (IC50) at 48 h came out at 29.8 µM in [3] and 37.7 µM in series [4]. The pH-dependent lipophilicity (logD) (usually lipophilicity at a set pH, counting ionised and neutral species) in the series “Log D” worked out at 4.64. In addition, the solubility (in general, the concentration that dissolves in the medium under given conditions) in series [5] was 1.69 µg/mL and 3.73 µM. Further, the “microsomal stability MLM (in words)” value in [6] is on record as “moderate MLM stability”. In addition, the “MLM, Cli” value in series [6] (mouse liver microsomes) is 209 μL/min/mg protein. For the same compound, the half-life in series [6] (mouse liver microsomes, read-out: MLM, T1/2) was found to be 7 min. The Papp (commonly the rate of passage across a membrane or cell layer, normalised by area and donor concentration) in the series on P-gp (MDR1) (MDCK-MDR1, A to B, read-out: MDR1-MDCK II, AB Papp) amounted to 12.6 ×10⁻⁶ cm/s; in the series on P-gp (MDR1) (MDCK-MDR1, B to A, read-out: MDR1-MDCK II, BA Papp), 38.8 ×10⁻⁶ cm/s. For the same compound, on S100A4, the “S100A4 covalent modification pattern (in words)” value is recorded as “single shifts”.
